According to patent US20070059242A1, “METHODS TO IDENTIFY THERAPEUTIC AGENTS” (priority 2005, published 2007):
Like-named read-outs stand apart in the source and are kept apart here.

Experiments:
[1] = test system: MH-S murine alveolar macrophage line; assay: LDH release cytotoxicity assay, MH-S; type: cell-based; details: 18 h
Procedure: (§1) Cytotoxicity assays. WI-L2 human B-lymphocyte line, HAAE-1 human abdominal aortic endothelial line, MH-S murine alveolar macrophage line, and J774A.1 murine tissue macrophage line were obtained from the ATCC. Human aortic endothelial cells (HAEC) and human vascular smooth muscle cells (VSMS) were obtained from Cambrex Bio Science. Jurkat E6-1T-lymphocytes were kindly provided by Dr. J. Kaye (The Scripps Research Institute). Cells were cultured in ATCC-recommended media with 10% fetal calf serum. Cells were incubated in a controlled atmosphere at 37° C., with 5 or 7% CO2. For lactate dehydrogenase (LDH) release assays, adherent cells were harvested either by addition of 0.05% trypsin/EDTA or by scraping. The cells obtained were seeded onto 96-well microtiter plates (25,000 cells/well) and allowed to recover for 24-48 h. […] Cytotoxicity was then determined by measuring lactate dehydrogenase (LDH) release from cells in culture. […] 100% Cytotoxicity was defined as the maximum amount of LDH released by dead cells as shown by trypan blue exclusion, or the highest amount of LDH detected upon lysis of cells by 0.9% Triton X-100. The IC50 values were determined by comparison of the raw duplicate data for concentration versus cytotoxicity (%) to non-linear regression analysis (Hill plot) using Graphpad v3.0 software for Macintosh.

[2] = test system: THP-1 monocytes; assay: Monocyte morphology changes (differentiation into macrophages); type: cell-based, human; details: for THP-1 cell adherence (differentiation into macrophages): 12.5 or 25 μM, 7 days
Procedure: THP-1 monocytes in suspension were plated in 8-well chambered slides. […] Media containing appropriate treatment compounds was replaced after 4 days. […]

[3] = test system: WI-L2 human B-lymphocyte line; assay: LDH release cytotoxicity assay, WI-L2; type: cell-based; details: Homo sapiens; WIL2; LDH release, 0-100 μM, 18 h
Procedure: Cytotoxicity assays. WI-L2 human B-lymphocyte line, HAAE-1 human abdominal aortic endothelial line, MH-S murine alveolar macrophage line, and J774A.1 murine tissue macrophage line were obtained from the ATCC. Human aortic endothelial cells (HAEC) and human vascular smooth muscle cells (VSMS) were obtained from Cambrex Bio Science. Jurkat E6-1T-lymphocytes were kindly provided by Dr. J. Kaye (The Scripps Research Institute). Cells were cultured in ATCC-recommended media with 10% fetal calf serum. Cells were incubated in a controlled atmosphere at 37° C., with 5 or 7% CO2. For lactate dehydrogenase (LDH) release assays, adherent cells were harvested either by addition of 0.05% trypsin/EDTA or by scraping. The cells obtained were seeded onto 96-well microtiter plates (25,000 cells/well) and allowed to recover for 24-48 h. Cells were washed gently and media replaced with fresh media containing 5% fetal calf serum. […] Cytotoxicity was then determined by measuring lactate dehydrogenase (LDH) release from cells in culture. […] 100% Cytotoxicity was defined as the maximum amount of LDH released by dead cells as shown by trypan blue exclusion, or the highest amount of LDH detected upon lysis of cells by 0.9% Triton X-100. The IC50 values were determined by comparison of the raw duplicate data for concentration versus cytotoxicity (%) to non-linear regression analysis (Hill plot) using Graphpad v3.0 software for Macintosh.
The following cell lines were employed in this study: a human B-lymphocyte (WI-L2) described in Levy et al., Cancer 22, 517 (1968); a T-lymphocyte cell line (Jurkat E6.1) described in Weiss et al., J. Immunol. 133, 123 (1984); a vascular smooth muscle cell line (VSMC) and an abdominal aorta endothelial (HAEC) cell line described in Folkman et al., Proc. Natl. Acad. Sci. U.S.A. 76, 5217 (1979); a murine tissue macrophage (J774A.1) described in Ralph et al., J. Exp. Med. 143, 1528 (1976); and an alveolar macrophage cell line (MH-S) described in Mbawuike et al., J. Leukoc. Biol. 46, 119 (1989).

[4] = test system: neuronal cell lines; assay: Cytotoxicity towards neuronal cell lines (similar procedures); type: cell-based
[5] = target: LDL / apoB-100 (Homo sapiens, UniProt P04114); assay: Circular dichroism of LDL secondary structure; details: LDL 100 μg/ml with compound 10 μM, PBS pH 7.4, 37° C.
LDL / apoB-100, sequence (P04114 28-4563, species assumed): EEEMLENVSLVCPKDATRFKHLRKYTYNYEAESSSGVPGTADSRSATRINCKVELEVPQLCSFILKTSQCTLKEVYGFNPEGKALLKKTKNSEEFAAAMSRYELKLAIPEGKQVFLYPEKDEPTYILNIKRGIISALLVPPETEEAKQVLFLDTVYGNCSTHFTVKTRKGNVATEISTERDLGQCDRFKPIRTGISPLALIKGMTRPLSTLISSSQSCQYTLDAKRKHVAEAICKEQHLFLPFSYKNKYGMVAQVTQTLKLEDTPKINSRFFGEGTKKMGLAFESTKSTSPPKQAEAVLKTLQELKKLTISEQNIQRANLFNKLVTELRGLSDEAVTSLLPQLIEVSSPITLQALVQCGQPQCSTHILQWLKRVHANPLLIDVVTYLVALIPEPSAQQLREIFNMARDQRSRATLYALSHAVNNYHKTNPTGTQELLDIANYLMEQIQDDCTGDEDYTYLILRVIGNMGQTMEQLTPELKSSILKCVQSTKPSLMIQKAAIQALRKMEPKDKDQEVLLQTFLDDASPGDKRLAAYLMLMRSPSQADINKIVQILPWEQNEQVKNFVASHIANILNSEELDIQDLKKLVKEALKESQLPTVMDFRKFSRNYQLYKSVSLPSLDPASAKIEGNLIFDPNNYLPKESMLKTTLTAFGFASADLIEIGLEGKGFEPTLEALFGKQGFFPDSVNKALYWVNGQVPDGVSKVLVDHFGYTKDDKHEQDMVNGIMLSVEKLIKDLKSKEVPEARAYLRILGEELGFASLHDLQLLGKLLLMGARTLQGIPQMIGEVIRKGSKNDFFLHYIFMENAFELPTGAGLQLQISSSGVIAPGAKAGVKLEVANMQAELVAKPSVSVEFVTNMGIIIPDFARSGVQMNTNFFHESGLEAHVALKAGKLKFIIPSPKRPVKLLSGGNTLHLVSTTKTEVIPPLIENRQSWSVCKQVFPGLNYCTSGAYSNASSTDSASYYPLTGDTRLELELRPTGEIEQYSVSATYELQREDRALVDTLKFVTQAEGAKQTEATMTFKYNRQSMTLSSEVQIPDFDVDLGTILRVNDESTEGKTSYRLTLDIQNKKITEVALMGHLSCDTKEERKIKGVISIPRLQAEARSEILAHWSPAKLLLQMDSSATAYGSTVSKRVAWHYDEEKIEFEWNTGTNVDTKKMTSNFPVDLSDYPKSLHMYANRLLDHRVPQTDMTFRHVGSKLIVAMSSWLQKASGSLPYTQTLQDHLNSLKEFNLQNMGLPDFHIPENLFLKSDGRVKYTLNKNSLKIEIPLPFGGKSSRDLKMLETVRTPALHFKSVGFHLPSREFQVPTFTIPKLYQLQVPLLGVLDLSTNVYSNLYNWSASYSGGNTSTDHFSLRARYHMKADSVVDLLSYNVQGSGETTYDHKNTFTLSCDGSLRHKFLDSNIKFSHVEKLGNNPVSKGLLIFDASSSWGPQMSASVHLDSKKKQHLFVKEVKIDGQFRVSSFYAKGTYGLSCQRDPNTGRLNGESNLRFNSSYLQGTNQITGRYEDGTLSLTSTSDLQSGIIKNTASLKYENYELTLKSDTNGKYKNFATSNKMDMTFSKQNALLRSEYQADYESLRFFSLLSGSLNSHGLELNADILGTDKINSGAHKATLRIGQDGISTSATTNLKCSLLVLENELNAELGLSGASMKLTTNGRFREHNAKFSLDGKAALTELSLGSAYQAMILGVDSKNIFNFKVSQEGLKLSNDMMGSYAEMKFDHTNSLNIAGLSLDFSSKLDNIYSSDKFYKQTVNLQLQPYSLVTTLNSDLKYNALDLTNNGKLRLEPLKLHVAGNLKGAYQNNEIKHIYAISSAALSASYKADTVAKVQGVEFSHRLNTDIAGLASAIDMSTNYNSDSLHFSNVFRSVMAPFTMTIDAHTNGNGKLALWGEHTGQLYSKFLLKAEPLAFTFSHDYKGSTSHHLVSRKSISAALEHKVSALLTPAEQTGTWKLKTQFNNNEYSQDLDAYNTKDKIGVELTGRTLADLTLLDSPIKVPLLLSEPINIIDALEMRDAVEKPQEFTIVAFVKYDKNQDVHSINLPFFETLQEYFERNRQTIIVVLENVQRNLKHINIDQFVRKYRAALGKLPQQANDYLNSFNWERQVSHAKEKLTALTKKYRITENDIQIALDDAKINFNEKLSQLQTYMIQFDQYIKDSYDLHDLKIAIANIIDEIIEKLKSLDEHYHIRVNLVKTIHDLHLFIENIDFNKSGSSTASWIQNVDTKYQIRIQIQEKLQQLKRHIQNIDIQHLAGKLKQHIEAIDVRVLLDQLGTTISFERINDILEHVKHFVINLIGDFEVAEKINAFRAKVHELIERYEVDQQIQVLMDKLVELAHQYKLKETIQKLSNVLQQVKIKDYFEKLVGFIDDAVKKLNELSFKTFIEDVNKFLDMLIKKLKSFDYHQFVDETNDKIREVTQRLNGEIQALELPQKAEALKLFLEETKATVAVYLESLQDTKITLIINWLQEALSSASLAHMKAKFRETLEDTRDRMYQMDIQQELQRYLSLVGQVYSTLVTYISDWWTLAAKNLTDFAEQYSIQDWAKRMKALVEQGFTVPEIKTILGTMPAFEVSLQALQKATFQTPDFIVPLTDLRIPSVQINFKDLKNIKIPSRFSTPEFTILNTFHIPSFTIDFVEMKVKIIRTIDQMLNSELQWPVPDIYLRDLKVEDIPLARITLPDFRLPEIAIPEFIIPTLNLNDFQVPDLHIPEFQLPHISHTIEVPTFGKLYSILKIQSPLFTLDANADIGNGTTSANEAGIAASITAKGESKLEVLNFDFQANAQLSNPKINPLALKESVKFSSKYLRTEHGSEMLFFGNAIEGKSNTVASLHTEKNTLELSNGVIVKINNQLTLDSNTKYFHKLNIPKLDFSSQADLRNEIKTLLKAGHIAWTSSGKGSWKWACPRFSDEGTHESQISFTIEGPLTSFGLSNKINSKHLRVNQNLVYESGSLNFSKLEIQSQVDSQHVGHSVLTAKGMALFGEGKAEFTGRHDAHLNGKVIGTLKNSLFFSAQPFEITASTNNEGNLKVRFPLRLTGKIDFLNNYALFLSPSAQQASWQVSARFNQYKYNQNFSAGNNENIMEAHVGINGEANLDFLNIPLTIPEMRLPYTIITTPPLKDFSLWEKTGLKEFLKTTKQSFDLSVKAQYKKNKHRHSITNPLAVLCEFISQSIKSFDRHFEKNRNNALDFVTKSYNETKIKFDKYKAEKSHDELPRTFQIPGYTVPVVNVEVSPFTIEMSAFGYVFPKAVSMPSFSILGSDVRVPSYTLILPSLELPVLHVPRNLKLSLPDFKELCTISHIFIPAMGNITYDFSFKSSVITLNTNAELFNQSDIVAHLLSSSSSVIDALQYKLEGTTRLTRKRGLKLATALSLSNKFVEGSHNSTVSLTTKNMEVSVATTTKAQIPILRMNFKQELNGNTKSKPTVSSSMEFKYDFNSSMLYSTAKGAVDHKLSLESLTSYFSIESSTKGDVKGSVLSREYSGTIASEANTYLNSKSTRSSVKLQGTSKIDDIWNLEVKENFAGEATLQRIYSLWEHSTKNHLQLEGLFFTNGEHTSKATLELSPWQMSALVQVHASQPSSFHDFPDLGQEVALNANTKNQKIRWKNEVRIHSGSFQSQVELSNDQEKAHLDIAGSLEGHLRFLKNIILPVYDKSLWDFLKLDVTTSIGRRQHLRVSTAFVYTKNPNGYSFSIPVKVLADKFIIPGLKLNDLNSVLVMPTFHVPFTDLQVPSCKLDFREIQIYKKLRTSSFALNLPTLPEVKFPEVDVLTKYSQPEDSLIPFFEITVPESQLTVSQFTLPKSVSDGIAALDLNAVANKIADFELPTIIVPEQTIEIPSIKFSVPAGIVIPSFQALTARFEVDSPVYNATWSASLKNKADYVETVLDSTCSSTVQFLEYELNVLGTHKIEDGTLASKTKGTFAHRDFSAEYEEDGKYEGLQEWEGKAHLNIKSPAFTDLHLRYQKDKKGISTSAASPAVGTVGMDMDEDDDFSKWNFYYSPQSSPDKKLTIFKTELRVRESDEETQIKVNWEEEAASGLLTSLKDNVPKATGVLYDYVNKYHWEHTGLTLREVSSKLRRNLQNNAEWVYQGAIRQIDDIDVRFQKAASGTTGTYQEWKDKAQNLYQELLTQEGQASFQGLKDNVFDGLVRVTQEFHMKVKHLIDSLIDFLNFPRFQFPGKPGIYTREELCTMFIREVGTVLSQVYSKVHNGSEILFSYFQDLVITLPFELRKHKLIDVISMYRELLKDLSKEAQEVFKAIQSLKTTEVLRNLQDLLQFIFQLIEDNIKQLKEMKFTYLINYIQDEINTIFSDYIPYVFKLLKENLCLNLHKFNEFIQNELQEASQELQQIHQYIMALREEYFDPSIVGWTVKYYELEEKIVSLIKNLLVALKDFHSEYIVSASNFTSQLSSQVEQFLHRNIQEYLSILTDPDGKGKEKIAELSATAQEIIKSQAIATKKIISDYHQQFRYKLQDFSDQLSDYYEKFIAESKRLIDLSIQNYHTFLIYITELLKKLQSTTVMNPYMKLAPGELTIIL
Procedure: Circular dichroism. […] Spectra were recorded in the peptidic range (200-260 nm). To increase the signal-to-noise ratio, multiple spectra (three) were averaged for each measurement.

[6] = test system: Class A scavenger receptor (SR-A); assay: Scavenger receptor expression by flow cytometry, SR-A; type: cell-based, murine; details: for upregulation of SR-A: J774A.1, 25 μM with LDL (100 μg/ml protein), 6 h; for SR-A expression: cultured macrophages, in the absence of LDL
Procedure: Cell surface CD36 and SR-A were measured by flow cytometry using CD36 (BD Biosciences Pharmingen, San Diego, Calif.) and CD204 (Serotec, Oxford, UK) specific monoclonal antibodies. See Liao et al. (2000) Arterioscler. Thromb. Vasc. Biol. 20: 1968-75; Hu et al. (1996) Blood 87: 2020-28. Murine macrophage J774A.1 cells were serum-starved overnight in media with 0.5% BSA. Cells (1×10^6) treated with cholesterol ozonation products or cholesterol ozonation product complexed with LDL for specified times were then washed twice with PBS. After harvesting the cells by scraping, they were fixed with 6% paraformaldehyde for 20 min. Cells were then resuspended in PBS containing 2% heat-inactivated FCS, 0.05% NaN3 and appropriate primary antibody, antibody conjugate or isotype control (1:100 dilution) and incubated on ice for 30 min. Expression of either CD36 or SR-A was determined with CD36 (BD Biosciences Pharmingen, San Diego, Calif.) and CD204 (Serotec, Oxford, U.K.) specific monoclonal antibodies, respectively. After washing off the primary antibody, secondary antibodies were added, cells were washed again, then analyzed on a FACS calibur 2 (Becton Dickinson, Sparks, Md.) flow cytometer and analyzed by CellQuant software. Results were expressed as mean fluorescence intensity±standard error of the mean (SEM) of at least duplicate determinations. Significance was determined using a student two-tail t test, with (*) indicating p<0.05, and (**) indicating p<0.01 versus the control.

[7] = test system: VCAM-1; assay: Endothelial adhesion molecule expression ELISA, VCAM-1; type: cell-based, human; details: for integrin (VCAM-1) expression: HAAE-1, not complexed with LDL
Procedure: Endothelial cell surface adhesion molecule expression was measured by ELISA, using anti-human CD54 (ICAM-1), CD106 (VCAM-1) and CD62E (E-Selectin) antibodies (Leinco Technologies, Inc., St. Louis, Mo.). The ELISA method was modified from previously described procedures.
Cells were then incubated with antibodies to VCAM-1, E-selectin, or ICAM-1 diluted 1:400 in PBS containing 5% FCS at 37° C. for 30 min. Wells were washed two times with PBS, then incubated with horseradish peroxidase (HRP)-conjugated goat anti-mouse IgG (Southern Biotechnology Associates, Birmingham, Ala., USA) in PBS/5% FCS at 37° C. for 30 min. The wells were washed four times with PBS, then incubated with H2O2/3,3′,5,5′-tetramethyl-benzidine peroxidase substrate (Pierce Chemical, Rockford, Ill., USA) for 30 min in the dark. The reaction was stopped by adding 25 μl of 8 N H2SO4, and the plates read on a microplate reader, blanking on wells stained with only secondary antibody. Each assay was performed in triplicate and the data are reported as the mean±SEM as a percentage of the expression level of the vehicle. To study the effect of cholesterol ozonation product 5a concentration (5-50 μM) on E-selectin expression, the assay was performed in an identical fashion as described above, with each point being the mean±SEM of at least duplicate measurements.

[8] = test system: Human aortic endothelial cells (HAEC); assay: LDH release cytotoxicity assay, HAEC; type: cell-based; details: Endothelial cell, 18 h
Procedure: as §1, with “Macintosh. […]” for “Macintosh.”

Structure (SMILES)	IC50 ([1]; MH-S, LDH release, 0-100 μM, read-out: IC50) [µM]	THP-1 cell adherence (differentiation into macrophages) [2]	IC50 [3] [µM]	cytotoxic towards neuronal cell lines [4]	random coil of LDL [5] [%]	α helical structure of LDL [5] [%]	upregulation of SR-A [6]	SR-A expression [6]	VCAM-1 levels ([7]; HAAE-1, 25 μM in the presence of LDL, or lipoprotein alone)	integrin (VCAM-1) expression [7]	IC50 ([8]; HAEC, LDH release, 0-100 μM, read-out: IC50) [µM]	IC50 ([1]; Mus musculus, Macrophage) [µM]	concentration that causes THP-1 cell differentiation [2] [µM]	IC50 [8] [µM]
CC(C)CCC[C@@H](C)[C@H]1CCC2C(CC=O)C([C@@]3(C)CC[C@H](O)CC3=O)CC[C@@]21C (stereo partly drawn) [4a, 3β-Hydroxy-5-oxo-5,6-secocholestan-6-al]	11.2 ± 1.2	induced no cell adherence	10.9 ± 1.6	cytotoxic	~39±2	~23±5	approximately 3 fold	did not increase expression	remain unchanged	no effects	24.6 ± 3.2	–	–	–
CC(C)CCC[C@@H](C)[C@H]1CCC2C3C(CC[C@@]21C)[C@@]1(C)CC[C@H](O)C[C@@]1(O)[C@@H]3C=O (stereo partly drawn) [5a, 3β-Hydroxy-5β-hydroxy-B-norcholestane-6β-carboxaldehyde]	–	began to adhere after 4 days	17.7 ± 2.3	cytotoxic	32±4	~20±2	approximately 3 fold	did not increase expression	–	no effects	–	13.6 ± 1.1	25	18.2 ± 1.9
